# Measured values from patent US8524736B2, “Stereoisomeric compounds and methods for the treatment of gastrointestinal and central nervous system disorders” (Armetheon, Inc., priority 2004, dated 2013).
# How the values were obtained:
# CYP450 2D6 = CYP450 2D6 (Homo sapiens, UniProt P10635); details: recombinant enzyme
# fasted, conscious dogs = assay: gastric, small intestinal and colonic motor activity in fasted, conscious dogs; details: for prokinetic effects in the dog gut: IV and PO; for effect on migrating motor complex (MMC) characteristics: antrum, proximal, mid and distal small intestine
# 5-HT4 Receptor = molecular target: T1, 5-HT4 Receptor (Cavia porcellus, UniProt O70528); assay: 5-HT4 Receptor Binding, Guinea Pig Striatum, [3H]GR113808; details: versus ATI-7500
# T1 construct: Guinea Pig Striatum; from tissue; host or cells: guinea pig striatum
# T1 sequence (O70528 whole entry): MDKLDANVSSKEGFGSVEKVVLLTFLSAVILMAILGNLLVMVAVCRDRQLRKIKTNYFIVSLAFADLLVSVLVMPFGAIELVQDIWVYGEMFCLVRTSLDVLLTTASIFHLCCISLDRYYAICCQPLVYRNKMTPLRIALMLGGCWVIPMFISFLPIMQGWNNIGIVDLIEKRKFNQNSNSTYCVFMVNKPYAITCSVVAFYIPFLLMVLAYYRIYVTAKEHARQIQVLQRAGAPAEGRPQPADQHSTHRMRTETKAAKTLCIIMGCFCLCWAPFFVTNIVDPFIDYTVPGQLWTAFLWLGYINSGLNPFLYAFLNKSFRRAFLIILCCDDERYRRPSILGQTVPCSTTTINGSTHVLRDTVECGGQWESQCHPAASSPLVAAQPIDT
# human 5-HT4 receptor = molecular target: T2, human 5-HT4 receptor (Homo sapiens, UniProt Q13639); assay: adenylyl cyclase stimulation in cells stably expressing human 5-HT4 receptor; assay type: cell-based; details: negative logarithm of the EC50
# T2 construct: expressed in transfected cells
# T2 sequence (Q13639 whole entry): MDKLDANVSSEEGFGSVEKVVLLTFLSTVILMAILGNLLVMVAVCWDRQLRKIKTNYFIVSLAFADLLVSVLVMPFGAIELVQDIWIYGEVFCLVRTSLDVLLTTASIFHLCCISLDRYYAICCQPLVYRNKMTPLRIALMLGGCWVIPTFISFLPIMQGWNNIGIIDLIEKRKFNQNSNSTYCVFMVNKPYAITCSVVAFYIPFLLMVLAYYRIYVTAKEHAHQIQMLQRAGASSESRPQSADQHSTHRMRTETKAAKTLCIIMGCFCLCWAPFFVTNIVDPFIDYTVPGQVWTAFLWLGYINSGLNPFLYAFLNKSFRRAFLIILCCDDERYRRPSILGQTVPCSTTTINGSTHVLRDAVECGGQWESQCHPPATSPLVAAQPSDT
# fed dogs = assay: gastric emptying in fed conscious dogs (time of MMC return); assay type: in vivo, dog; details: IV infusion over 20 minutes before a solid meal; FIG. 2
# [1] = tested on: isolated, perfused guinea pig hearts
# [2] = metabolism by esterases in human plasma
# CYP450 2D6, sequence (P10635 whole entry): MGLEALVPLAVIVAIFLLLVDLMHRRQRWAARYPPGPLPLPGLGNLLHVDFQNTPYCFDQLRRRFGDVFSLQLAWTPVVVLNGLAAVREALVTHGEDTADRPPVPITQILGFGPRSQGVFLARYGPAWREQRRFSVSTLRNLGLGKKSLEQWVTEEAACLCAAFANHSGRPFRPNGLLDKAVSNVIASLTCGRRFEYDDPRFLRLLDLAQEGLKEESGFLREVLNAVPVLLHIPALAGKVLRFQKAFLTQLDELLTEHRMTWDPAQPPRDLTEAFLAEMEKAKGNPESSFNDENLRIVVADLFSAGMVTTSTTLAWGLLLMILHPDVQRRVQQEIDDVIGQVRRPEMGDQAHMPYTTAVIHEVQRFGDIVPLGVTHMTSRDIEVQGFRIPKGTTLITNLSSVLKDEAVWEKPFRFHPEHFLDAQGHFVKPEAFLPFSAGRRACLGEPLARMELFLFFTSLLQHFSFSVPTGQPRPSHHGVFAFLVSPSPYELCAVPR
inhibitory activity against CYP450 2D6 (CYP450 2D6),Structure (SMILES),"prokinetic effects in the dog gut (fasted, conscious dogs)","effect on migrating motor complex (MMC) characteristics (fasted, conscious dogs)","antral and small bowel contractility (fasted, conscious dogs; fasted dogs)","colonic motor activity (fasted, conscious dogs; fasted dogs)","affinity for the 5-HT4 receptor, fold greater than ATI-7500 (5-HT4 Receptor)",Potency pEC50 (human 5-HT4 receptor),time of MMC return (index of gastric emptying) (fed dogs),modulation of cardiac electrophysiologic parameters [1],metabolism by esterases in human plasma [2],"side effects such as diarrhea, anorexia, or weight loss (fasted, conscious dogs; IV and PO doses, dogs)","MMC frequency in the proximal small intestine relative to controls (fasted, conscious dogs; PO)","development of retrograde giant migrating contractions (fasted, conscious dogs; fasted dogs)"
significant inhibitory activity,"COc1cc(N)c(Cl)cc1C(=O)NC1CCN(CCCOc2ccc(F)cc2)CC1OC (stereo not drawn) [Cisapride, reference compound]",caused prokinetic effects,minimal effect,dose-dependent stimulation of antral and small bowel contractility,relatively little effect on colonic motor activity,–,–,–,–,–,–,–,–
–,"COc1cc(N)c(Cl)cc1C(=O)N[C@@H]1CCN(CCCCCC(=O)O[C@H]2CN3CCC2CC3)C[C@@H]1OC [ATI-7505, 6-[4R-(4-amino-5-chloro-2-methoxy-benzoylamino)-3S-methoxy-piperidin-1-yl]-hexanoic acid 1-aza-bicyclo[2.2.2]oct-3′R-yl ester]",caused prokinetic effects,minimal effect,dose-dependent stimulation of antral and small bowel contractility,relatively little effect on colonic motor activity,at least 360 fold,8.45,significantly shortened the time of MMC return,very weak modulator of cardiac electrophysiologic parameters,rapidly metabolized by esterases in human plasma,exhibited no side effects,increased MMC frequency,not associated with the development of retrograde giant migrating contractions
–,"COc1cc(N)c(Cl)cc1C(=O)N[C@@H]1CCN(CCCCCC(=O)O)C[C@@H]1OC [ATI-7500, 6-((3S,4R)-4-(4-amino-5-chloro-2-methoxybenzamido)-3-methoxypiperidin-1-yl)hexanoic acid]",–,–,–,–,–,6.40,–,–,–,–,–,–
